According to PubChem BioAssay AID1259407 (Chemical Carcinogenesis Research Information System (CCRIS), 2018):
Activity calls are given as the source filed them. The rule behind the calls is not given here.

Test system: CCRIS mutagenicity, Ames/micronucleus/aberration tests
Assay: CCRIS mutagenicity studies
[1] = Test System: AMES SALMONELLA TYPHIMURIUM, Strain/Indicator: TA98, Metabolic Activation: NONE, Method: STANDARD PLATE
[2] = Test System: AMES SALMONELLA TYPHIMURIUM, Strain/Indicator: TA97, Metabolic Activation: NONE, Method: PREINCUBATION
[3] = Test System: AMES SALMONELLA TYPHIMURIUM, Strain/Indicator: TA98, Metabolic Activation: NONE, Method: PREINCUBATION
[4] = Test System: AMES SALMONELLA TYPHIMURIUM, Strain/Indicator: TA1535, Metabolic Activation: NONE, Method: PREINCUBATION
[5] = Test System: AMES SALMONELLA TYPHIMURIUM, Strain/Indicator: TA100, Metabolic Activation: NONE, Method: PREINCUBATION

## CN(C)c1ccc(NS(=O)(=O)c2cccc3cccnc23)cc1
[1]
  mutagenic call: inactive; negative
Test System: AMES SALMONELLA TYPHIMURIUM, Strain/Indicator: TA98, Metabolic Activation: RAT, LIVER, S-9, AROCLOR 1254, Method: STANDARD PLATE
  mutagenic call: active; positive
Test System: AMES SALMONELLA TYPHIMURIUM, Strain/Indicator: TA100, Metabolic Activation: NONE, Method: STANDARD PLATE
  mutagenic call: inactive; negative
Test System: AMES SALMONELLA TYPHIMURIUM, Strain/Indicator: TA100, Metabolic Activation: RAT, LIVER, S-9, AROCLOR 1254, Method: STANDARD PLATE
  mutagenic call: active; positive
Test System: AMES SALMONELLA TYPHIMURIUM, Strain/Indicator: TA1535, Metabolic Activation: NONE, Method: STANDARD PLATE
  mutagenic call: inactive; negative
Test System: AMES SALMONELLA TYPHIMURIUM, Strain/Indicator: TA1535, Metabolic Activation: RAT, LIVER, S-9, AROCLOR 1254, Method: STANDARD PLATE
  mutagenic call: inactive; negative
Test System: AMES SALMONELLA TYPHIMURIUM, Strain/Indicator: TA1537, Metabolic Activation: NONE, Method: STANDARD PLATE
  mutagenic call: inactive; negative
Test System: AMES SALMONELLA TYPHIMURIUM, Strain/Indicator: TA1537, Metabolic Activation: RAT, LIVER, S-9, AROCLOR 1254, Method: STANDARD PLATE
  mutagenic call: inactive; negative

## O[C@@H]1[C@@H]2O[C@@H]2C=C[C@H]1O
[2]
  mutagenic call: inactive; negative
[3]
  mutagenic call: inactive; negative
[4]
  mutagenic call: active; positive

## CCc1ccccc1[N+](=O)[O-]
[3]
  mutagenic call: inactive; negative
Test System: AMES SALMONELLA TYPHIMURIUM, Strain/Indicator: TA98, Metabolic Activation: RAT, LIVER, S-9, KANECHLOR 500, Method: PREINCUBATION
  mutagenic call: inactive; negative
[5]
  mutagenic call: inactive; negative
Test System: AMES SALMONELLA TYPHIMURIUM, Strain/Indicator: TA100, Metabolic Activation: RAT, LIVER, S-9, KANECHLOR 500, Method: PREINCUBATION
  mutagenic call: inactive; negative

## CC1(C)CC(N=C=O)CC(C)(CN=C=O)C1 (stereo not drawn)
Test System: AMES SALMONELLA TYPHIMURIUM, Strain/Indicator: TA98, Metabolic Activation: HAMSTER, LIVER, S-9, AROCLOR 1254 (10%), Method: PREINCUBATION
  mutagenic call: inactive; negative
[3]
  mutagenic call: inactive; negative
Test System: AMES SALMONELLA TYPHIMURIUM, Strain/Indicator: TA98, Metabolic Activation: RAT, LIVER, S-9, AROCLOR 1254 (10%), Method: PREINCUBATION
  mutagenic call: inactive; negative
Test System: AMES SALMONELLA TYPHIMURIUM, Strain/Indicator: TA100, Metabolic Activation: HAMSTER, LIVER, S-9, AROCLOR 1254 (10%), Method: PREINCUBATION
  mutagenic call: inactive; negative
[5]
  mutagenic call: inactive; negative
Test System: AMES SALMONELLA TYPHIMURIUM, Strain/Indicator: TA100, Metabolic Activation: RAT, LIVER, S-9, AROCLOR 1254 (10%), Method: PREINCUBATION
  mutagenic call: inactive; negative
Test System: AMES SALMONELLA TYPHIMURIUM, Strain/Indicator: TA1535, Metabolic Activation: HAMSTER, LIVER, S-9, AROCLOR 1254 (10%), Method: PREINCUBATION
  mutagenic call: inactive; negative
[4]
  mutagenic call: inactive; negative
Test System: AMES SALMONELLA TYPHIMURIUM, Strain/Indicator: TA1535, Metabolic Activation: RAT, LIVER, S-9, AROCLOR 1254 (10%), Method: PREINCUBATION
  mutagenic call: inactive; negative
Test System: AMES SALMONELLA TYPHIMURIUM, Strain/Indicator: TA1537, Metabolic Activation: HAMSTER, LIVER, S-9, AROCLOR 1254 (10%), Method: PREINCUBATION
  mutagenic call: inactive; negative
Test System: AMES SALMONELLA TYPHIMURIUM, Strain/Indicator: TA1537, Metabolic Activation: NONE, Method: PREINCUBATION
  mutagenic call: inactive; negative
Test System: AMES SALMONELLA TYPHIMURIUM, Strain/Indicator: TA1537, Metabolic Activation: RAT, LIVER, S-9, AROCLOR 1254 (10%), Method: PREINCUBATION
  mutagenic call: inactive; negative

## [CH3][Sn]([CH3])([Cl])[Cl]
Test System: AMES SALMONELLA TYPHIMURIUM, Strain/Indicator: TA98, Metabolic Activation: NONE, Method: SUSPENSION/PLATE
  mutagenic call: inactive; negative
Test System: AMES SALMONELLA TYPHIMURIUM, Strain/Indicator: TA100, Metabolic Activation: NONE, Method: SUSPENSION/PLATE
  mutagenic call: inactive; negative

## C#Cc1ccc2c3c(cccc13)-c1ccccc1-2
[1]
  mutagenic call: active; positive
Test System: AMES SALMONELLA TYPHIMURIUM, Strain/Indicator: TA98, Metabolic Activation: RAT, LIVER, S-9, AROCLOR 1254 (2%), Method: STANDARD PLATE
  mutagenic call: active; positive

## C=CCNC(N)=S
Test System: AMES SALMONELLA TYPHIMURIUM, Strain/Indicator: TA97, Metabolic Activation: HAMSTER, LIVER, S-9, AROCLOR 1254 (10 OR 30%), Method: PREINCUBATION
  mutagenic call: inactive; negative
[2]
  mutagenic call: inactive; negative
Test System: AMES SALMONELLA TYPHIMURIUM, Strain/Indicator: TA97, Metabolic Activation: RAT, LIVER, S-9, AROCLOR 1254 (10 OR 30%), Method: PREINCUBATION
  mutagenic call: inactive; negative
Test System: AMES SALMONELLA TYPHIMURIUM, Strain/Indicator: TA98, Metabolic Activation: HAMSTER, LIVER, S-9, AROCLOR 1254 (10 OR 30%), Method: PREINCUBATION
  mutagenic call: inactive; negative
[3]
  mutagenic call: inactive; negative
Test System: AMES SALMONELLA TYPHIMURIUM, Strain/Indicator: TA98, Metabolic Activation: RAT, LIVER, S-9, AROCLOR 1254 (10 OR 30%), Method: PREINCUBATION
  mutagenic call: inactive; negative
Test System: AMES SALMONELLA TYPHIMURIUM, Strain/Indicator: TA100, Metabolic Activation: HAMSTER, LIVER, S-9, AROCLOR 1254 (10 OR 30%), Method: PREINCUBATION
  mutagenic call: inactive; negative
[5]
  mutagenic call: inactive; negative
Test System: AMES SALMONELLA TYPHIMURIUM, Strain/Indicator: TA100, Metabolic Activation: RAT, LIVER, S-9, AROCLOR 1254 (10 OR 30%), Method: PREINCUBATION
  mutagenic call: inactive; negative
Test System: AMES SALMONELLA TYPHIMURIUM, Strain/Indicator: TA1535, Metabolic Activation: HAMSTER, LIVER, S-9, AROCLOR 1254 (10 OR 30%), Method: PREINCUBATION
  mutagenic call: inactive; negative
[4]
  mutagenic call: inactive; negative
Test System: AMES SALMONELLA TYPHIMURIUM, Strain/Indicator: TA1535, Metabolic Activation: RAT, LIVER, S-9, AROCLOR 1254 (10 OR 30%), Method: PREINCUBATION
  mutagenic call: inactive; negative

## CCCCCCC(=O)OCCN1CCN(CCCN2c3ccccc3Sc3ccc(C(F)(F)F)cc32)CC1
Test System: AMES SALMONELLA TYPHIMURIUM, Strain/Indicator: TA98, Metabolic Activation: NONE
  mutagenic call: inactive; negative
Test System: AMES SALMONELLA TYPHIMURIUM, Strain/Indicator: TA98, Metabolic Activation: RAT, LIVER, S-9, PHENOBARBITAL AND 5,6-BENZOFLAVONE
  mutagenic call: inactive; negative
Test System: AMES SALMONELLA TYPHIMURIUM, Strain/Indicator: TA100, Metabolic Activation: NONE
  mutagenic call: inactive; negative
Test System: AMES SALMONELLA TYPHIMURIUM, Strain/Indicator: TA100, Metabolic Activation: RAT, LIVER, S-9, PHENOBARBITAL AND 5,6 BENZOFLAVONE
  mutagenic call: inactive; negative
Test System: AMES SALMONELLA TYPHIMURIUM, Strain/Indicator: TA1535, Metabolic Activation: NONE
  mutagenic call: inactive; negative
Test System: AMES SALMONELLA TYPHIMURIUM, Strain/Indicator: TA1535, Metabolic Activation: RAT, LIVER, S-9, PHENOBARBITAL AND 5,6-BENZOFLAVONE
  mutagenic call: inactive; negative
Test System: AMES SALMONELLA TYPHIMURIUM, Strain/Indicator: TA1537, Metabolic Activation: NONE
  mutagenic call: inactive; negative
Test System: AMES SALMONELLA TYPHIMURIUM, Strain/Indicator: TA1537, Metabolic Activation: RAT, LIVER, S-9, PHENOBARBITAL AND 5,6-BENZOFLAVONE
  mutagenic call: inactive; negative
Test System: E. COLI, Strain/Indicator: WP2 UVRA, Metabolic Activation: NONE
  mutagenic call: inactive; negative
Test System: E. COLI, Strain/Indicator: WP2 UVRA, Metabolic Activation: RAT, LIVER, S-9, PHENOBARBITAL AND 5,6 BENZOFLAVONE
  mutagenic call: inactive; negative
